This is an account of results in US5340822A, “Polycyclic amine compounds and their enantiomers, their method of preparation and pharmaceutical compositions in which they are present” (Elf Sanofi, priority 1991, dated 1994).

The target in one assay is binding of substance P. Briefly: antagonism of the binding of substance P on rat cortical membranes and IM9 lymphoblasts. The conditions noted are these: rat cortical membranes and/or IM9 lymphoblasts (not said which); read-out: Ki, antagonizes the binding of substance P.
The target in the next assay is T1, binding of eledoisin (Rattus norvegicus, UniProt P16177).
T1 construct: tests performed on rat membranes; from tissue
T1 sequence (P16177 1-452): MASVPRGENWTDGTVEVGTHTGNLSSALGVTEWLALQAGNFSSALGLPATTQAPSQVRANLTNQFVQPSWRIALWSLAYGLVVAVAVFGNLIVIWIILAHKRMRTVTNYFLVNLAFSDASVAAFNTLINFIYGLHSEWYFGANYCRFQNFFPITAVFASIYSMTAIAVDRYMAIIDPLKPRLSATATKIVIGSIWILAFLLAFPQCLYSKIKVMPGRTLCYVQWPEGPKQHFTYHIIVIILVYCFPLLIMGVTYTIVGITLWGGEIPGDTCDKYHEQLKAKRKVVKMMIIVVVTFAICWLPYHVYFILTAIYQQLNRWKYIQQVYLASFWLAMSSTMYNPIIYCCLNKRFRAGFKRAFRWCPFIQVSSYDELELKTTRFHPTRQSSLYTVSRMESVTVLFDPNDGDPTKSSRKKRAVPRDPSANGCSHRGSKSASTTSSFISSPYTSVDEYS
Briefly: antagonism of the binding of eledoisin on rat membranes. The conditions noted are these: read-out: Ki, antagonizes the binding of eledoisin. From the text:
Foster et al., Br. J. Pharmacol., 1988, 94, 602-608.
Eledoisin is a peptide of batrachian origin which is equivalent to neurokinin B.

In assay [1] the target is T2, binding of neurokinin A (NKA) (Rattus norvegicus, UniProt P16610).
T2 construct: tests performed on rat duodenal membranes; from tissue; host or cells: rat duodenal membranes
T2 sequence (P16610 1-390): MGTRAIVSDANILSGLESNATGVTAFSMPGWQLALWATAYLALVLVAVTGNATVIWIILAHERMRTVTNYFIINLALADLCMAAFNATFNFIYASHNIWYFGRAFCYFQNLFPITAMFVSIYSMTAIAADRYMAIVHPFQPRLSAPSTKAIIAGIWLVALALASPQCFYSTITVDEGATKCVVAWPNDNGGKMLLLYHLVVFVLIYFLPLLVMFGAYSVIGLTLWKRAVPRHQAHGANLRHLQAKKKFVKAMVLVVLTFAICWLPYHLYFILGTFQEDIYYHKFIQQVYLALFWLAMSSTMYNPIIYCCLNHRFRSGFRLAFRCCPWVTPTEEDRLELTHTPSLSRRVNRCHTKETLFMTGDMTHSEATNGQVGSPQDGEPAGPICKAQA
Briefly: antagonism of the binding of NKA on rat duodenal membranes. Conditions: read-out: Ki, antagonizes the binding of neurokinin A.

Another assay concerns NK1 receptor. The conditions noted are these: D. Regoli, 1988 and 1989; cited from earlier work.

Where a name gives a salt, the structure may show the parent alone.

For the compound `O=C(Cc1ccccc1)N1CCCC(CCN2CCC(Cc3ccccc3)CC2)(c2ccc(Cl)c(Cl)c2)C1` (stereo not shown) [Compound 2, 3-[2-(4-Benzylpiperidin-1-yl)ethyl]-3-(3,4-dichlorophenyl)-1-phenylacetylpiperidine hydrochloride], the Ki at binding of substance P was 8.3 nM. Regarding `O=C1CCC(CCN2CCC(O)(c3ccccc3)CC2)(c2ccc(Cl)c(Cl)c2)CN1Cc1ccccc1` (stereo not shown) [Compound 3], the Ki on binding of eledoisin came to 200 nM.

With `O=C(c1ccccc1)N1CCC(CCN2CCC(O)(c3ccccc3)CC2)(c2ccc(Cl)c(Cl)c2)C1` (stereo not shown) [Compound 7], the Ki in assay [1] is 1.3 nM. Turning to [Sar^9,Met-(O2)^11 ]SP, the “selectivity for the NK1 receptor” value in the assay on NK1 receptor is listed as “thought to have a selectivity for the NK1”.

As usually defined, the Ki is the dissociation constant of the complex between target and ligand, obtained from inhibition or displacement.
